The nature of the series: Evaluation of cell membrane permeability (MDCKII permeation test, Papp). The format is in vitro ADME. To be noted: MDCK, MDCKII cell layer, 10 μM in HBSS, apical to basal, 37° C.; for Papp A→B: 2 hours. Here is the method:
Evaluation of the cell membrane permeability of the cyclic peptide according to the embodiment of the present invention was carried out.
300 μL of MDCKII cells (ECACC standard cell line) were seeded at a density of 1.0×10^6 cells/mL onto an insert (dedicated for a 24-well plate, pore diameter: 3.0 μm, manufactured by Corning Incorporated) and cultured at 37° C. in a 5% CO2 environment. After three days, the electric resistance value of the cell layer was measured (using a measuring device), and it was confirmed that the cell layer had high barrier properties (>100 Ω·cm^2).
After the insert was washed by being immersed in HBSS (phenol red-free, the same applies hereinafter), 200 μL of a sample prepared in 10 μM/HBSS was added thereto, and the insert was allowed to stand in a low-adsorption 24-well plate containing 900 μL of HBSS (37° C., 5% CO2). After 2 hours, each liquid of an upper layer (apical) and a lower layer (basal) of the insert (10 μL for apical and 500 μL for basal) was recovered. After testing, no leakage was confirmed with Lucifer Yellow, which is a non-permeable fluorescent dye.
The device used was LC/MS/MS (triple quadrupole type).
Eluent: A) 5 mM ammonium formate, 0.2% formic acid/H2O, B) 0.1% formic acid/MeCN, flow rate: 0.5 mL/min, injection volume: 2 μL, column: ACQUITY UPLC BEH C18 Column, 1.7 μm, 2.1 mm×50 mm (manufactured by Waters Corporation), temperature: 70° C., gradient (% B): 2% (0 to 0.5 min)→98% (2 to 3 min)→2% (3 to 5 min), ionization: ESI, detection mode: MRM (positive)
Based on the calculation expression shown in Expression (1), a permeability coefficient Papp, which represents the membrane permeability, was calculated from each quantitative value.
C0: initial concentration (10 μM)
S: surface area (0.33 cm^2) of single layer membrane
dC/dt: concentration change at basal [μM/s]

In patent US20250179120A1, “CYCLIC PEPTIDE OR SALT THEREOF, AND MDMX INHIBITOR” (FUJIFILM Corporation, priority 2022, published 2025) one finds Papp A→B data, which are given here for five molecules.

SMILES strings stand for the structures. Numbered stars: 1 amine (or outer) side, 2 acyl side, 3 side chain; on linkers, the order of the positions; unused ones are H or OH. Square brackets hold non-standard residues; d marks the D form. Peptide text beside a SMILES is read from it. Ala(4-thiazolyl) = N[C@@H](Cc1cscn1)C(=O)O; Phe(4-Cl) = N[C@@H](Cc1ccc(Cl)cc1)C(=O)O; X1 = O=C(CSC[C@H](Cc1cscn1)N[*:1])[*:2]; Phe(4-F) = N[C@@H](Cc1ccc(F)cc1)C(=O)O; NHCH2CH2SCH2CO = O=C(CSCCN[*:1])[*:2]; NMeF = CN[C@@H](Cc1ccccc1)C(=O)O; Tle = CC(C)(C)[C@H](N)C(=O)O; hSer = N[C@@H](CCO)C(=O)O; NMeA = CN[C@@H](C)C(=O)O; dNMeA = CN[C@H](C)C(=O)O; Nme = COCCNCC(=O)O Some results are limits rather than exact numbers.

The term Papp A→B denotes the apparent permeability from the apical to the basolateral side of a cell layer. Low readings indicate slow passage, high ones fast passage. For `COCC[C@@H]1NC(=O)[C@H]2CCCN2C(=O)[C@H](Cc2ccccc2)N(C)C(=O)[C@H](Cc2ccc(Cl)cc2)NC(=O)[C@H](C(C)(C)C)NC(=O)[C@H](Cc2ccc(F)cc2)NC(=O)[C@H](C)N(C)C(=O)[C@@H](C)N(C)C(=O)[C@H](Cc2cscn2)NC(=O)[C@H](C)N(C)C1=O` [Comparative Example 1, reference compound] (cyclo([Ala(4-thiazolyl)][dNMeA][NMeA][Phe(4-F)][Tle][Phe(4-Cl)][NMeF][dP][hSer](Me)[NMeA])), under “dog”, the Papp A→B at 2 h, 10 μM is less than 0.1 ×10⁻⁶ cm/s. Regarding `COCC[C@@H]1NC(=O)[C@@H](C)N(C)C(=O)[C@H](Cc2ccccc2)N(C)C(=O)[C@H](Cc2ccc(Cl)cc2)NC(=O)[C@H]([C@@H](C)O)NC(=O)[C@H](Cc2ccc(F)cc2)NC(=O)[C@@H]2CCCN2C(=O)CSCCNC(=O)[C@H](C)N(C)C1=O` [compound 3] (cyclo([NMeA][NHCH2CH2SCH2CO]P[Phe(4-F)]T[Phe(4-Cl)][NMeF][dNMeA][hSer](Me))), the apparent permeability from apical to basolateral (Papp A→B) lay within 0.25 to 0.5 ×10⁻⁶ cm/s. Molecule `COCC[C@@H]1NC(=O)[C@H](C)N(C)C(=O)[C@H](Cc2ccccc2)N(C)C(=O)[C@H](Cc2ccc(Cl)cc2)NC(=O)[C@H]([C@@H](C)O)NC(=O)[C@H](Cc2ccc(F)cc2)NC(=O)[C@@H]2CCCN2C(=O)CSCCNC(=O)[C@H](C)N(C)C1=O` [compound 4] (cyclo([NMeA][hSer](Me)[NMeA][NHCH2CH2SCH2CO]P[Phe(4-F)]T[Phe(4-Cl)][NMeF])) registered an apparent permeability from apical to basolateral (Papp A→B) of 0.1 to 0.25 ×10⁻⁶ cm/s. For `COCC[C@@H]1NC(=O)[C@H](C)N(C)C(=O)[C@H](Cc2ccccc2)N(C)C(=O)[C@H](Cc2ccc(Cl)cc2)NC(=O)[C@H]([C@@H](C)O)NC(=O)[C@H](Cc2ccc(F)cc2)NC(=O)[C@@H]2CCCN2C(=O)CSC[C@H](Cc2cscn2)NC(=O)[C@H](C)N(C)C1=O` [compound 5] (cyclo([NMeA][hSer](Me)[NMeA][X1]P[Phe(4-F)]T[Phe(4-Cl)][NMeF])), the Papp A→B was 0.1 to 0.25 ×10⁻⁶ cm/s. For `COCC[C@@H]1NC(=O)[C@H](C)N(C)C(=O)[C@H](Cc2ccccc2)N(C)C(=O)[C@H](Cc2ccc(Cl)cc2)NC(=O)[C@H]([C@@H](C)O)NC(=O)[C@H](Cc2ccc(F)cc2)NC(=O)CN(CCOC)C(=O)CSC[C@H](Cc2cscn2)NC(=O)[C@H](C)N(C)C1=O` [compound 6] (cyclo([NMeA][hSer](Me)[NMeA][X1][Nme][Phe(4-F)]T[Phe(4-Cl)][NMeF])), the Papp A→B lay within 0.1 to 0.25 ×10⁻⁶ cm/s.
